Measured values reported in ChEMBL document CHEMBL1154822, “Synthesis and antiproliferative activity of 7-azaindirubin-3'-oxime, a 7-aza isostere of the natural indirubin pharmacophore” (J Nat Prod, 2009).

Tests used:
SNB-19 = experiment: Cytotoxicity against human SNB19 cells assessed as cell growth at 10 uM after 48 hrs by MTT assay; format: functional; conditions: SNB-19, 48 h, read-out: Activity
SK-MEL-28 = experiment: Cytotoxicity against human SK-MEL-28 cells assessed as cell growth at 10 uM after 48 hrs by MTT assay; format: functional; conditions: SK-MEL-28, 48 h, read-out: Activity
[1] = molecular target: Glycogen synthase kinase-3 beta (Homo sapiens) (UniProt P49841); experiment: Inhibition of human GSK3-beta assessed as residual enzyme activity at 0.01 uM after 40 mins by scintillation counting
Glycogen synthase kinase-3 beta (Homo sapiens), sequence (P49841 whole entry, looked up): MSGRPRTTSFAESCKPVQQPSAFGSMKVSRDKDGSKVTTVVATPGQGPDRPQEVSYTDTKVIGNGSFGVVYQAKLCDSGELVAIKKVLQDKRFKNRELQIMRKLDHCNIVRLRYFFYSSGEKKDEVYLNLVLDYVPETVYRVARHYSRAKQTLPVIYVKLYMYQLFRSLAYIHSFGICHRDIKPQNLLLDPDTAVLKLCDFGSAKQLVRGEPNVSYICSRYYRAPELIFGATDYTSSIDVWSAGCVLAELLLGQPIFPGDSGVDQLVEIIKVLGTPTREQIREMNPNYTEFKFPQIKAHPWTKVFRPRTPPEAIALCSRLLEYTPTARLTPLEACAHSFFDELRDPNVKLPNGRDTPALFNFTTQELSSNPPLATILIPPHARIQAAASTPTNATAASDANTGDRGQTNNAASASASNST

OVCAR-8 [2] = experiment: Cytotoxicity against human OVCAR8 cells after 1 to 11 days by MTT assay; format: functional
TK-10 = experiment: Cytotoxicity against human TK10 cells assessed as cell growth at 10 uM after 48 hrs by MTT assay; format: functional; conditions: TK-10, 48 h, read-out: Activity
CCRF-CEM = experiment: Cytotoxicity against human CCRF-CEM cells assessed as cell growth at 100 uM after 1 to 11 days by MTT assay; format: functional; conditions: read-out: Activity
UACC-62 [3] = experiment: Cytotoxicity against human UACC62 cells assessed as cell growth at 10 uM after 48 hrs by MTT assay; format: functional; conditions: UACC-62, 48 h, read-out: Activity
PC-3 [4] = experiment: Cytotoxicity against human PC3 cells assessed as cell growth at 1 uM after 1 to 11 days by MTT assay; format: functional; conditions: read-out: Activity
OVCAR-8 [5] = experiment: Cytotoxicity against human OVCAR8 cells assessed as cell growth at 10 uM after 48 hrs by MTT assay; format: functional; conditions: OVCAR-8, 48 h, read-out: Activity
PC-3 [6] = experiment: Cytotoxicity against human PC3 cells assessed as cell growth at 10 uM after 48 hrs by MTT assay; format: functional; conditions: PC-3, 48 h, read-out: Activity
HOP-62 = experiment: Cytotoxicity against human HOP62 cells assessed as cell growth at 10 uM after 48 hrs by MTT assay; format: functional; conditions: HOP-62, 48 h, read-out: Activity
HCT-116 [7] = experiment: Cytotoxicity against human HCT116 cells after 1 to 11 days by MTT assay; format: functional
[8] = molecular target: T1, Cyclin-dependent kinase 5/CDK5 activator 1 (Homo sapiens) (UniProt Q00535+Q15078); experiment: Inhibition of human CDK5/p35 assessed as residual enzyme activity at 0.3 uM after 40 mins by scintillation counting; format: protein-complex assay
NCI-H460 = experiment: Cytotoxicity against human NCI-H460 cells assessed as cell growth at 10 uM after 48 hrs by MTT assay; format: functional; conditions: NCI-H460, 48 h, read-out: Activity
[9] = molecular target: T2, Cyclin-dependent kinase 1/cyclin B1 (Homo sapiens) (UniProt P06493+P14635); experiment: Inhibition of human CDK1/Cyclin B assessed as residual enzyme activity at 3 uM after 40 mins by scintillation counting; format: protein-complex assay
T2 sequence (P06493 whole entry, looked up): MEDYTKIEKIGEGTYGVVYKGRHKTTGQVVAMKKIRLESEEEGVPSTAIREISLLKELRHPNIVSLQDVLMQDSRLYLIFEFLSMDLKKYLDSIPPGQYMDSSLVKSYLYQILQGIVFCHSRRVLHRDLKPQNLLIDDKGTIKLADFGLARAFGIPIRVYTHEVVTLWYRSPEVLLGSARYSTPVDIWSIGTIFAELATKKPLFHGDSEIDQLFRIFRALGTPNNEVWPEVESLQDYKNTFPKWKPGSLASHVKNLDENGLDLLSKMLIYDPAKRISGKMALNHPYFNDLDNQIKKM
T2 sequence (P14635 whole entry, looked up): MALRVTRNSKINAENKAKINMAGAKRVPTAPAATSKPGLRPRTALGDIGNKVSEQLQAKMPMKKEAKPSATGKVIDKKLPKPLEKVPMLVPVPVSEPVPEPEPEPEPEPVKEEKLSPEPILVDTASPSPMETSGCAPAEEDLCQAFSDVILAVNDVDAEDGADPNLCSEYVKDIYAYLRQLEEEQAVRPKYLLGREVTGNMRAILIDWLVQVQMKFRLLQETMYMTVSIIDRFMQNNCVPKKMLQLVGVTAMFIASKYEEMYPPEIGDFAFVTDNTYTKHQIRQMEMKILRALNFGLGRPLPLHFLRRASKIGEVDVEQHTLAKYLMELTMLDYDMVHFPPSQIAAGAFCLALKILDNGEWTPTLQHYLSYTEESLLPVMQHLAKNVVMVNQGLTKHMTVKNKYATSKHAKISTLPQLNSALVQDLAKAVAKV

SNB-75 = experiment: Cytotoxicity against human SNB75 cells assessed as cell growth at 10 uM after 1 to 11 days by MTT assay; format: functional; conditions: read-out: Activity
SF-539 = experiment: Cytotoxicity against human SF539 cells assessed as cell growth at 10 uM after 48 hrs by MTT assay; format: functional; conditions: SF-539, 48 h, read-out: Activity
[10] = Cytotoxicity against human Hs 578T cells assessed as cell growth at 0.1 uM after 1 to 11 days by MTT assay; format: functional; conditions: read-out: Activity
MDA-MB-231 = experiment: Cytotoxicity against human MDA-MB-231 cells assessed as cell growth at 1 uM after 1 to 11 days by MTT assay; format: functional; conditions: read-out: Activity
[11] = molecular target: T2, Cyclin-dependent kinase 1/cyclin B1 (Homo sapiens); experiment: Inhibition of human CDK1/Cyclin B assessed as residual enzyme activity at 0.3 uM after 40 mins by scintillation counting; format: protein-complex assay
NCI/ADR-RES = experiment: Cytotoxicity against human NCI/ADR-RES cells assessed as cell growth at 10 uM after 48 hrs by MTT assay; format: functional; conditions: read-out: Activity
[12] = molecular target: Glycogen synthase kinase-3 beta (Homo sapiens) (UniProt P49841); experiment: Inhibition of human GSK3-beta assessed as residual enzyme activity at 0.3 uM after 40 mins by scintillation counting
[13] = molecular target: Cyclin-dependent kinase 2/cyclin A (Homo sapiens) (UniProt P24941+P20248+P78396); experiment: Inhibition of human CDK2/Cyclin A assessed as residual enzyme activity at 3 uM after 40 mins by scintillation counting; format: protein-complex assay
UACC-62 [14] = experiment: Cytotoxicity against human UACC62 cells assessed as cell growth at 1 mM after 1 to 11 days by MTT assay; format: functional; conditions: read-out: Activity
786-0 = experiment: Cytotoxicity against human 786-0 cells assessed as cell growth at 10 uM after 48 hrs by MTT assay; format: functional; conditions: 786-0, 48 h, read-out: Activity
M14 [15] = experiment: Cytotoxicity against human M14 cells assessed as cell growth at 10 uM after 48 hrs by MTT assay; format: functional; conditions: M14, 48 h, read-out: Activity
OVCAR-3 = experiment: Cytotoxicity against human OVCAR-3 cells assessed as cell growth at 1 mM after 1 to 11 days by MTT assay; format: functional; conditions: read-out: Activity
DU-145 = experiment: Cytotoxicity against human DU145 cells assessed as cell growth at 10 uM after 48 hrs by MTT assay; format: functional; conditions: DU-145, 48 h, read-out: Activity
SK-MEL-2 = experiment: Cytotoxicity against human SK-MEL-2 cells assessed as cell growth at 10 uM after 48 hrs by MTT assay; format: functional; conditions: SK-MEL-2, 48 h, read-out: Activity
NCI-H522 = experiment: Cytotoxicity against human NCI-H522 cells assessed as cell growth at 10 uM after 48 hrs by MTT assay; format: functional; conditions: NCI-H522, 48 h, read-out: Activity
UACC-257 = experiment: Cytotoxicity against human UACC257 cells assessed as cell growth at 10 uM after 48 hrs by MTT assay; format: functional; conditions: UACC-257, 48 h, read-out: Activity
[16] = molecular target: T1, Cyclin-dependent kinase 5/CDK5 activator 1 (Homo sapiens); experiment: Inhibition of human CDK5/p35 assessed as residual enzyme activity at 3 uM after 40 mins by scintillation counting; format: protein-complex assay
Malme-3M = experiment: Cytotoxicity against human MALME-3M cells assessed as cell growth at 10 uM after 48 hrs by MTT assay; format: functional; conditions: read-out: Activity
SK-MEL-5 = experiment: Cytotoxicity against human SK-MEL-5 cells assessed as cell growth at 10 uM after 48 hrs by MTT assay; format: functional; conditions: SK-MEL-5, 48 h, read-out: Activity
UO-31 = experiment: Cytotoxicity against human UO31 cells assessed as cell growth at 10 uM after 48 hrs by MTT assay; format: functional; conditions: UO-31, 48 h, read-out: Activity
HCT-116 [17] = experiment: Cytotoxicity against human HCT116 cells assessed as cell growth at 10 uM after 48 hrs by MTT assay; format: functional; conditions: HCT-116, 48 h, read-out: Activity
OVCAR-5 = experiment: Cytotoxicity against human OVCAR5 cells assessed as cell growth at 10 uM after 48 hrs by MTT assay; format: functional; conditions: OVCAR-5, 48 h, read-out: Activity
M14 [18] = experiment: Cytotoxicity against human M14 cells assessed as cell growth at 0.1 uM after 1 to 11 days by MTT assay; format: functional; conditions: read-out: Activity
HT-29 = experiment: Cytotoxicity against human HT-29 cells assessed as cell growth at 10 uM after 48 hrs by MTT assay; format: functional; conditions: HT-29, 48 h, read-out: Activity
[19] = read-out: LC50 (the source's name)

O=C1Nc2ncccc2/C1=C1/Nc2ccccc2/C1=N\O
growth at 10 µM (SNB-19): 96.5%
growth at 10 µM (SK-MEL-28): 75.3%
Activity [1]: 88%
GI50 (OVCAR-8 [2]): > 100 µM
TGI (OVCAR-8 [2]): > 100 µM
CC50 (OVCAR-8 [2]; [19]): > 100 µM
growth at 10 µM (TK-10): 40.3%
growth at 100 µM (CCRF-CEM): 37%
growth at 10 µM (UACC-62 [3]): 56.7%
growth at 1 µM (PC-3 [4]): 83%
growth at 10 µM (OVCAR-8 [5]): 79.6%
growth at 10 µM (PC-3 [6]): 67.7%
growth at 10 µM (HOP-62): 45.9%
TGI (HCT-116 [7]): > 100 µM
CC50 (HCT-116 [7]; [19]): > 100 µM
Activity [8]: 65%
growth at 10 µM (NCI-H460): 52.2%
Activity [9]: 69%
growth at 10 µM (SNB-75): 86%
growth at 10 µM (SF-539): 50.3%
growth at 0.1 µM [10]: 97%
growth at 1 µM (MDA-MB-231): 88%
Activity [11]: 105%
growth at 10 µM (NCI/ADR-RES): 71.8%
Activity [12]: 64%
Activity [13]: 76%
growth at 1000 µM (UACC-62 [14]): 25%
growth at 10 µM (786-0): 43.4%
growth at 10 µM (M14 [15]): 56.4%
growth at 1000 µM (OVCAR-3): 51%
growth at 10 µM (DU-145): 82.2%
growth at 10 µM (SK-MEL-2): 14.7%
growth at 10 µM (NCI-H522): 47.6%
growth at 10 µM (UACC-257): 92.6%
Activity [16]: 19%
growth at 10 µM (Malme-3M): 91%
growth at 10 µM (SK-MEL-5): 72.3%
growth at 10 µM (UO-31): 10.6%
growth at 10 µM (HCT-116 [17]): 36.9%
growth at 10 µM (OVCAR-5): 87.7%
growth at 0.1 µM (M14 [18]): 95%
growth at 10 µM (HT-29): 102%

CN1C(=O)/C(=C2/C(=O)N(C)c3ncccc32)c2cccnc21
growth at 10 µM (SNB-19): 99.4%
growth at 10 µM (SK-MEL-28): 106%
Activity [1]: 94%
growth at 10 µM (TK-10): 94.4%
growth at 10 µM (UACC-62 [3]): 103%
growth at 10 µM (OVCAR-8 [5]): 88.8%
growth at 10 µM (PC-3 [6]): 100%
growth at 10 µM (HOP-62): 91.1%
Activity [8]: 101%
growth at 10 µM (NCI-H460): 121%
Activity [9]: 95%
growth at 10 µM (SF-539): 117%
Activity [11]: 88%
growth at 10 µM (NCI/ADR-RES): 85.5%
Activity [12]: 105%
Activity [13]: 109%
growth at 10 µM (786-0): 94.5%
growth at 10 µM (M14 [15]): 92.7%
growth at 10 µM (DU-145): 119%
growth at 10 µM (SK-MEL-2): 83.5%
growth at 10 µM (NCI-H522): 98%
growth at 10 µM (UACC-257): 102%
Activity [16]: 84%
growth at 10 µM (Malme-3M): 91.5%
growth at 10 µM (SK-MEL-5): 102%
growth at 10 µM (UO-31): 88.3%
growth at 10 µM (HCT-116 [17]): 90.4%
growth at 10 µM (OVCAR-5): 86.7%
growth at 10 µM (HT-29): 99.5%

O=C1Nc2ncccc2/C1=C1/Nc2ccccc2C1=O
growth at 10 µM (SNB-19): 96.4%
growth at 10 µM (SK-MEL-28): 123%
Activity [1]: 96%
growth at 10 µM (TK-10): 56.4%
growth at 10 µM (UACC-62 [3]): 79.6%
growth at 10 µM (OVCAR-8 [5]): 84.4%
growth at 10 µM (PC-3 [6]): 73%
growth at 10 µM (HOP-62): 68.8%
Activity [8]: 82%
growth at 10 µM (NCI-H460): 47.7%
Activity [9]: 65%
growth at 10 µM (SF-539): 90.9%
Activity [11]: 88%
growth at 10 µM (NCI/ADR-RES): 82.7%
Activity [12]: 93%
Activity [13]: 64%
growth at 10 µM (786-0): 84.1%
growth at 10 µM (M14 [15]): 93.8%
growth at 10 µM (DU-145): 81.2%
growth at 10 µM (SK-MEL-2): 43.4%
growth at 10 µM (NCI-H522): 76.3%
growth at 10 µM (UACC-257): 96.5%
Activity [16]: 39%
growth at 10 µM (Malme-3M): 139%
growth at 10 µM (SK-MEL-5): 75.4%
growth at 10 µM (UO-31): 46.2%
growth at 10 µM (HCT-116 [17]): 48.5%
growth at 10 µM (OVCAR-5): 77.7%
growth at 10 µM (HT-29): 93.8%
